Results reported in patent US20130210623A1, “PESTICIDAL MIXTURES INCLUDING ISOXAZOLINE DERIVATIVES” (SYNGENTA CROP PROTECTION LLC, priority 2010, published 2013).

Assays:
[1] = tested on: Heliothis virescens (Tobacco Budworm); test: Heliothis virescens egg/larval mortality on artificial diet, 24-well microtiter plate; type: in vivo; settings: 4 days
Method: Heliothis virescens (Tobacco Budworm)
Eggs (0-24 h old) are placed in 24-well microtiter plate on artificial diet and treated with test solutions (DMSO) by pipetting. After an incubation period of 4 days, samples are checked for larval mortality.

[2] = tested on: Tetranychus urticae (Two-Spotted Spider Mite); test: Tetranychus urticae mixed population mortality on sprayed bean leaf discs; type: in vivo
Description: Tetranychus urticae (Two-Spotted Spider Mite)
Bean leaf discs on agar in 24-well microtiter plates are sprayed with test solutions (DMSO). After drying, the leaf discs are infested with mite populations of mixed ages. 8 days later, discs are checked for mixed population mortality.

CN/C(=N\[N+](=O)[O-])NCc1cnc(Cl)s1 [Clothianidin, clothianidin]
AVERAGE DEAD IN % Clothianidin ([1]; Table 4, Clothianidin alone 1.5 ppm AI): 0% | AVERAGE DEAD IN % Clothianidin ([1]; Table 4, Clothianidin alone 3 ppm AI): 0% | AVERAGE DEAD IN % Clothianidin ([1]; Table 4, Clothianidin alone 6 ppm AI): 25% | AVERAGE DEAD IN % Clothianidin ([1]; Table 4, Clothianidin alone 12 ppm AI): 50% | AVERAGE DEAD IN % Clothianidin ([1]; Table 4, Clothianidin alone 24 ppm AI): 85% | AVERAGE DEAD IN % Clothianidin ([2]; Table 8, Clothianidin alone 50 ppm AI, 8 days): 0% | AVERAGE DEAD IN % Clothianidin ([2]; Table 8, Clothianidin alone 100 ppm AI, 8 days): 0% | AVERAGE DEAD IN % Clothianidin ([2]; Table 8, Clothianidin alone 200 ppm AI, 8 days): 0% | AVERAGE DEAD IN % Clothianidin ([2]; Table 8, Clothianidin alone 400 ppm AI, 8 days): 0% | AVERAGE DEAD IN % Clothianidin ([2]; Table 8, Clothianidin alone 800 ppm AI, 8 days): 0%

CC1(C)[C@H](C(=O)O[C@H](C#N)c2cccc(Oc3ccccc3)c2)[C@@H]1/C=C(\Cl)C(F)(F)F (racemic) [Lambda Cyhalothrin, lambda-cyhalothrin]
AVERAGE DEAD IN % Lambda Cyhalothrin ([1]; Table 2, Lambda Cyhalothrin alone 0.0125 ppm AI): 0% | AVERAGE DEAD IN % Lambda Cyhalothrin ([1]; Table 2, Lambda Cyhalothrin alone 0.025 ppm AI): 0% | AVERAGE DEAD IN % Lambda Cyhalothrin ([1]; Table 2, Lambda Cyhalothrin alone 0.05 ppm AI): 0% | AVERAGE DEAD IN % Lambda Cyhalothrin ([1]; Table 2, Lambda Cyhalothrin alone 0.1 ppm AI): 50% | AVERAGE DEAD IN % Lambda Cyhalothrin ([1]; Table 2, Lambda Cyhalothrin alone 0.2 ppm AI): 80% | AVERAGE DEAD IN % Lambda Cyhalothrin ([1]; Table 2, Lambda Cyhalothrin alone 0.4 ppm AI): 90% | AVERAGE DEAD IN % Lambda Cyhalothrin ([2]; Table 6, Lambda Cyhalothrin alone 6.25 ppm AI, 8 days): 0% | AVERAGE DEAD IN % Lambda Cyhalothrin ([2]; Table 6, Lambda Cyhalothrin alone 12.5 ppm AI, 8 days): 50% | AVERAGE DEAD IN % Lambda Cyhalothrin ([2]; Table 6, Lambda Cyhalothrin alone 25 ppm AI, 8 days): 90% | AVERAGE DEAD IN % Lambda Cyhalothrin ([2]; Table 6, Lambda Cyhalothrin alone 50 ppm AI, 8 days): 85%

CCOC(=O)OC1=C(c2cc(C)ccc2C)C(=O)N[C@]12CC[C@@H](OC)CC2 [Spirotetramat, spirotetramat]
AVERAGE DEAD IN % Spirotetramat ([1]; Table 3, Spirotetramat alone 25 ppm AI): 10% | AVERAGE DEAD IN % Spirotetramat ([1]; Table 3, Spirotetramat alone 50 ppm AI): 0% | AVERAGE DEAD IN % Spirotetramat ([1]; Table 3, Spirotetramat alone 100 ppm AI): 0% | AVERAGE DEAD IN % Spirotetramat ([1]; Table 3, Spirotetramat alone 200 ppm AI): 0% | AVERAGE DEAD IN % Spirotetramat ([1]; Table 3, Spirotetramat alone 400 ppm AI): 15% | AVERAGE DEAD IN % Spirotetramat ([1]; Table 3, Spirotetramat alone 800 ppm AI): 80% | AVERAGE DEAD IN % Spirotetramat ([2]; Table 7, Spirotetramat alone 12.5 ppm AI, 8 days): 75% | AVERAGE DEAD IN % Spirotetramat ([2]; Table 7, Spirotetramat alone 25 ppm AI, 8 days): 85% | AVERAGE DEAD IN % Spirotetramat ([2]; Table 7, Spirotetramat alone 50 ppm AI, 8 days): 90% | AVERAGE DEAD IN % Spirotetramat ([2]; Table 7, Spirotetramat alone 100 ppm AI, 8 days): 90% | AVERAGE DEAD IN % Spirotetramat ([2]; Table 7, Spirotetramat alone 200 ppm AI, 8 days): 90%

Cc1cc(C2=NO[C@@](c3cc(Cl)cc(Cl)c3)(C(F)(F)F)C2)ccc1C(=O)NCC(=O)NCC(F)(F)F [I-A2]
AVERAGE DEAD IN % COMPOUND I-A2 ([1]; Table 1, I-A2 alone 0.025 ppm AI): 0% | AVERAGE DEAD IN % COMPOUND I-A2 ([1]; Table 1, I-A2 alone 0.05 ppm AI): 0% | AVERAGE DEAD IN % COMPOUND I-A2 ([1]; Table 1, I-A2 alone 0.1 ppm AI): 5% | AVERAGE DEAD IN % COMPOUND I-A2 ([1]; Table 1, I-A2 alone 0.2 ppm AI): 75% | AVERAGE DEAD IN % COMPOUND I-A2 ([1]; Table 1, I-A2 alone 0.4 ppm AI): 94% | AVERAGE DEAD IN % COMPOUND I-A2 ([1]; Table 1, I-A2 alone 0.8 ppm AI): 99% | AVERAGE DEAD IN % COMPOUND I-A2 ([1]; Table 2, I-A2 alone 0.025 ppm AI): 0% | AVERAGE DEAD IN % COMPOUND I-A2 ([1]; Table 2, I-A2 alone 0.05 ppm AI): 0% | AVERAGE DEAD IN % COMPOUND I-A2 ([1]; Table 2, I-A2 alone 0.1 ppm AI): 5% | AVERAGE DEAD IN % COMPOUND I-A2 ([1]; Table 2, I-A2 alone 0.2 ppm AI): 75% | AVERAGE DEAD IN % COMPOUND I-A2 ([1]; Table 2, I-A2 alone 0.4 ppm AI): 94% | AVERAGE DEAD IN % COMPOUND I-A2 ([1]; Table 2, I-A2 alone 0.8 ppm AI): 99% | AVERAGE DEAD IN % COMPOUND I-A2 ([1]; Table 3, I-A2 alone 0.05 ppm AI): 0% | AVERAGE DEAD IN % COMPOUND I-A2 ([1]; Table 3, I-A2 alone 0.1 ppm AI): 0% | AVERAGE DEAD IN % COMPOUND I-A2 ([1]; Table 3, I-A2 alone 0.2 ppm AI): 73% | AVERAGE DEAD IN % COMPOUND I-A2 ([1]; Table 3, I-A2 alone 0.4 ppm AI): 89% | AVERAGE DEAD IN % COMPOUND I-A2 ([1]; Table 3, I-A2 alone 0.8 ppm AI): 98% | AVERAGE DEAD IN % COMPOUND I-A2 ([1]; Table 4, I-A2 alone 0.05 ppm AI): 0% | AVERAGE DEAD IN % COMPOUND I-A2 ([1]; Table 4, I-A2 alone 0.1 ppm AI): 0% | AVERAGE DEAD IN % COMPOUND I-A2 ([1]; Table 4, I-A2 alone 0.2 ppm AI): 73% | AVERAGE DEAD IN % COMPOUND I-A2 ([1]; Table 4, I-A2 alone 0.4 ppm AI): 89% | AVERAGE DEAD IN % COMPOUND I-A2 ([1]; Table 4, I-A2 alone 0.8 ppm AI): 98% | AVERAGE DEAD IN % COMPOUND I-A2 ([2]; Table 5, I-A2 alone 0.1 ppm AI, 8 days): 17% | AVERAGE DEAD IN % COMPOUND I-A2 ([2]; Table 5, I-A2 alone 0.2 ppm AI, 8 days): 83% | AVERAGE DEAD IN % COMPOUND I-A2 ([2]; Table 5, I-A2 alone 0.4 ppm AI, 8 days): 100% | AVERAGE DEAD IN % COMPOUND I-A2 ([2]; Table 6, I-A2 alone 0.1 ppm AI, 8 days): 17% | AVERAGE DEAD IN % COMPOUND I-A2 ([2]; Table 6, I-A2 alone 0.2 ppm AI, 8 days): 83% | AVERAGE DEAD IN % COMPOUND I-A2 ([2]; Table 6, I-A2 alone 0.8 ppm AI, 8 days): 100% | AVERAGE DEAD IN % COMPOUND I-A2 ([2]; Table 7, I-A2 alone 0.025 ppm AI, 0 * = 0% control assumed since control at the higher rate was also 0%): 0 * % | AVERAGE DEAD IN % COMPOUND I-A2 ([2]; Table 7, I-A2 alone 0.05 ppm AI, 0 * = 0% control assumed since control at the higher rate was also 0%): 0 * % | AVERAGE DEAD IN % COMPOUND I-A2 ([2]; Table 7, I-A2 alone 0.1 ppm AI, 8 days): 0% | AVERAGE DEAD IN % COMPOUND I-A2 ([2]; Table 7, I-A2 alone 0.2 ppm AI, 8 days): 85% | AVERAGE DEAD IN % COMPOUND I-A2 ([2]; Table 7, I-A2 alone 0.4 ppm AI, 8 days): 95% | AVERAGE DEAD IN % COMPOUND I-A2 ([2]; Table 8, I-A2 alone 0.1 ppm AI, 8 days): 0% | AVERAGE DEAD IN % COMPOUND I-A2 ([2]; Table 8, I-A2 alone 0.2 ppm AI, 8 days): 85% | AVERAGE DEAD IN % COMPOUND I-A2 ([2]; Table 8, I-A2 alone 0.4 ppm AI, 8 days): 95%

abamectin
AVERAGE DEAD IN % Abamectin ([1]; Table 1, Abamectin alone 0.1 ppm AI): 0% | AVERAGE DEAD IN % Abamectin ([1]; Table 1, Abamectin alone 0.2 ppm AI): 0% | AVERAGE DEAD IN % Abamectin ([1]; Table 1, Abamectin alone 0.4 ppm AI): 10% | AVERAGE DEAD IN % Abamectin ([1]; Table 1, Abamectin alone 0.8 ppm AI): 65% | AVERAGE DEAD IN % Abamectin ([1]; Table 1, Abamectin alone 1.6 ppm AI): 90% | AVERAGE DEAD IN % Abamectin ([1]; Table 1, Abamectin alone 3.2 ppm AI): 90% | AVERAGE DEAD IN % Abamectin ([2]; Table 5, Abamectin alone 0.0125 ppm AI, 8 days): 0% | AVERAGE DEAD IN % Abamectin ([2]; Table 5, Abamectin alone 0.025 ppm AI, 8 days): 25% | AVERAGE DEAD IN % Abamectin ([2]; Table 5, Abamectin alone 0.05 ppm AI, 8 days): 55% | AVERAGE DEAD IN % Abamectin ([2]; Table 5, Abamectin alone 0.1 ppm AI, 8 days): 55% | AVERAGE DEAD IN % Abamectin ([2]; Table 5, Abamectin alone 0.2 ppm AI, 8 days): 60%
